From patent US20250179059A1 (The Regents of the University of California, priority 2021, published 2025)
Read-outs that look alike come from different tables or passages of the source.

Columns and labels:
[1] = biological target: T1, human BRD4 bromodomain I (Homo sapiens, UniProt O60885); experiment: Bromodomain binding assay (AlphaScreen), BRD4 BDI; conditions: Table C1
T1 construct: human BRD4 bromodomain I [residues 44-170]; host or cells: E. coli
Method: Bromodomain Binding Assay
The bromodomain binding assay utilizes AlphaScreen technology. Compounds compete with a biotinylated peptide ligand (from histone H4: aa 1-21, K5/K8/K12/K16Ac-biotin) for binding to a hexahistidine (His6)-tagged bromodomain. Peptide binding is detected by fluorescence signal after singlet oxygen energy transfer from peptide-bound AlphaScreen streptavidin-coated donor beads to His6-tagged bromodomain-bound nickel-chelate acceptor beads (PerkinElmer). Briefly, 8 μL 2.5× bromodomain (E. coli expressed, N-terminal His6-tagged human BRD4 bromodomain II [based on Genbank NM_058243, residues 349-460] or N-terminal His6-tagged human BRD4 bromodomain I [residues 44-170]) in reaction buffer (50 mM HEPES [pH 7.5], 100 mM NaCl, 0.05% CHAPS, 0.1% BSA, 1% DMSO) is added to wells of an assay plate (384-well low flange white, flat bottom, polystyrene microplate, Corning #3572; buffer only is added to some wells as a negative control). A compound concentration series (10 concentrations, 3-fold serial dilutions previously prepared in 100% DMSO, or 100% DMSO only negative control) is delivered to the assay plate with an Echo 550 acoustic liquid handler (Labcyte), followed by plate centrifugation and incubation for 30 minutes at room temperature. Then 4 μL 5× biotinylated peptide ligand is added, followed by plate centrifugation and gentle shaking for 30 minutes at room temperature to mix. After this incubation, 4 μL 5× donor beads are added, and the plate is centrifuged, followed by brief gentle shaking to mix. Finally, 4 μL 5× acceptor beads are added, and the plate is centrifuged, followed by gentle shaking for 60 minutes at room temperature in the dark. AlphaScreen signal (excitation/emission: 680 nm/520-620 nm) is detected with an EnSpire multimode plate reader (PerkinElmer). Percentage peptide binding is plotted as a function of concentration, and curve fitting is used to determine competitive compound binding ICsos.

[2] = biological target: T2, human BRD4 bromodomain II (Homo sapiens, UniProt O60885); experiment: Bromodomain binding assay (AlphaScreen), BRD4 BDII; conditions: AlphaScreen assay, read-out: BRD4 BDII IC50
T2 construct: human BRD4 bromodomain II [based on Genbank NM_058243, residues 349-460]; host or cells: E. coli
Procedure, shortened: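 Read-out is AlphaScreen signal (ex 680 nm, em 520-620 nm) from streptavidin donor beads on a biotinylated acetylated histone H4 (aa 1-21) peptide and nickel acceptor beads on the His6-tagged bromodomain. IC50 values come from curve fits of percentage peptide binding against compound concentration.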

[3] = system: human SKM-1 acute myeloid leukemia cells; experiment: SKM-1 antiproliferation cell-based assay (ATPlite); conditions: Homo sapiens, SKM-1, 96 h, SKM-1 antiproliferation assay, 4 days, Table C2
Procedure, shortened: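 Log-phase cells in RPMI 1640/15% FBS were seeded at 34722 cells/mL and exposed for 4 days to nine-concentration DMSO serial dilutions in triplicate. Viability was read as ATP luminescence (ATPlite 1step), and IC50 values came from variable-slope non-linear regression.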

| SMILES | IC50 [1] | IC50 ([2]; Table C1) | IC50 ([2]; Table C2) | GI50 [3] |
| --- | --- | --- | --- | --- |
| CC(=O)Nc1ccc(-c2cccc(-c3ccnc(N4CCNCC4)c3)c2O)cc1F [Example 163, N-(3-fluoro-2′-hydroxy-3′-(2-(piperazin-1-yl)pyridin-4-yl)-[1,1′-biphenyl]-4-yl)acetamide] | > 100 nM | 1 to 10 nM | 1 to 10 nM | 30 to 300 nM |
| Cn1ccn(-c2ccc(-c3cc(F)cc(-c4ccnc(N5CCNCC5)c4)c3O)cc2Cl)c1=O [Example 365, 1-(3-chloro-5′-fluoro-2′-hydroxy-3′-(2-(piperazin-1-yl)pyridin-4-yl)-[1,1′-biphenyl]-4-yl)-3-methyl-1H-imidazol-2(3H)-one] | > 100 nM | 1 to 10 nM | 1 to 10 nM | 0.3 to 30 nM |
| C[C@@H]1CN(c2cc(-c3cc(F)cc(-c4ccc(-n5ccn(C)c5=O)c(Cl)c4)c3O)ccn2)CCN1 [Example 413, (R)-1-(3-chloro-5′-fluoro-2′-hydroxy-3′-(2-(3-methylpiperazin-1-yl)pyridin-4-yl)-[1,1′-biphenyl]-4-yl)-3-methyl-1H-imidazol-2(3H)-one] | > 100 nM | 0.01 to 1 nM | 0.01 to 1 nM | 0.3 to 30 nM |
| CC(=O)Nc1ccc(-c2cccc(-c3cccc(N4CCNCC4)c3)c2O)cc1F [Example 109, N-(3-Fluoro-2′-hydroxy-3″-(piperazin-1-yl)-[1,1′:3′,1″-terphenyl]-4-yl)acetamide] | > 100 nM | 1 to 10 nM | 1 to 10 nM | 300 to 3000 nM |

More lines, now with the values ahead:

| IC50 [1] | IC50 ([2]; Table C1) | IC50 ([2]; Table C2) | GI50 [3] | SMILES |
| --- | --- | --- | --- | --- |
| > 100 nM | 1 to 10 nM | 1 to 10 nM | 30 to 300 nM | CN1CCN(c2ccc(-c3cccc(-c4ccnc(N5CCNCC5)c4)c3O)cc2Cl)C1=O [Example 245, 1-(3-Chloro-2′-hydroxy-3′-(2-(piperazin-1-yl)pyridin-4-yl)-[1,1′-biphenyl]-4-yl)-3-methylimidazolidin-2-one] |
| > 100 nM | 1 to 10 nM | 1 to 10 nM | 30 to 300 nM | CN1CCN(c2ccc(-c3cc(F)cc(-c4ccnc(N5CCNCC5)c4)c3O)cc2Cl)C1=O [Example 297, 1-(3-chloro-5′-fluoro-2′-hydroxy-3′-(2-(piperazin-1-yl)pyridin-4-yl)-[1,1′-biphenyl]-4-yl)-3-methylimidazolidin-2-one] |
